This is an account of results in patent publication US9440948B2, “Nicotine compounds and analogs thereof, synthetic methods of making compounds, and methods of use” (priority 2010, dated 2016).

Structures are written as SMILES. Entries after “also recorded” stand apart in the source; their conditions may differ. Where two headings read alike, the source gives them in different places.

In experiment [1] the target is T1, α4β2 receptors (Homo sapiens, UniProt P17787+P43681).
T1 construct: expressed in transfected cells; host or cells: Xenopus laevis oocytes (mRNA injection, alpha4:beta2 1:1)
T1 sequence (P43681 29-627 limits assumed): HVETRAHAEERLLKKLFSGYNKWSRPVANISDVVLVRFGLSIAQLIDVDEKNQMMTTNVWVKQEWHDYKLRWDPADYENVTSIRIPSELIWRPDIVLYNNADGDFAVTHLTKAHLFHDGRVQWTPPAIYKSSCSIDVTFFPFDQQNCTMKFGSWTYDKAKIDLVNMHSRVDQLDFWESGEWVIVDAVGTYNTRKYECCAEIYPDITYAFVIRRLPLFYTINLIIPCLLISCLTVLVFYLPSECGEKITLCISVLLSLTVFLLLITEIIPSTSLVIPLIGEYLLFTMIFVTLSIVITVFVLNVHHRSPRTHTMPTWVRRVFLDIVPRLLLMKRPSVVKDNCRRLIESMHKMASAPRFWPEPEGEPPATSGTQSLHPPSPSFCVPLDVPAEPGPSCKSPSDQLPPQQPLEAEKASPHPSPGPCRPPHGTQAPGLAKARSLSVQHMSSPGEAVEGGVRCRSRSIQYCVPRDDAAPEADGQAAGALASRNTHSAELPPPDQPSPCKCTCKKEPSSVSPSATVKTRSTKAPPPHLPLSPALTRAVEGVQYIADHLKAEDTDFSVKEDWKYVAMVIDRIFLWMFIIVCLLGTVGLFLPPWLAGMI
T1 sequence (P17787 26-502): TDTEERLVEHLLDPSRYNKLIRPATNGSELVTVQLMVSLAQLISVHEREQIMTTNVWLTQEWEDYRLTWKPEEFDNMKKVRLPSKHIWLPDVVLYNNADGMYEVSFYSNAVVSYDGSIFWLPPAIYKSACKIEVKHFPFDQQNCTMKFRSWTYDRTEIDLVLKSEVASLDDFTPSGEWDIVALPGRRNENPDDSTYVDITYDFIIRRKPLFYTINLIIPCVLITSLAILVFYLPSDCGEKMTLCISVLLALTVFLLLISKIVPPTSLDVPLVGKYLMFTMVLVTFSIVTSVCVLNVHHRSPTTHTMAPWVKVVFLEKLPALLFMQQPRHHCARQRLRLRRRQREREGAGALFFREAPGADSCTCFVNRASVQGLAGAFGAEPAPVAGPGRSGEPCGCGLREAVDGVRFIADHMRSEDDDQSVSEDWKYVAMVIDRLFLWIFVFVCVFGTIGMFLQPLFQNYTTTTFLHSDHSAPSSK
The experiment is classed as cell-based. The conditions noted are these: for agonist activity/potency on α4β2 receptors (in words): oocytes expressing α4β2 receptors. The text has this:
(§1) ACh control applications alternated with test compound applications.

The target in experiment [2] is T2, α7 receptors (Homo sapiens, UniProt P36544).
T2 construct: expressed in transfected cells; host or cells: Xenopus laevis oocytes (mRNA injection)
T2 sequence (P36544 23-502): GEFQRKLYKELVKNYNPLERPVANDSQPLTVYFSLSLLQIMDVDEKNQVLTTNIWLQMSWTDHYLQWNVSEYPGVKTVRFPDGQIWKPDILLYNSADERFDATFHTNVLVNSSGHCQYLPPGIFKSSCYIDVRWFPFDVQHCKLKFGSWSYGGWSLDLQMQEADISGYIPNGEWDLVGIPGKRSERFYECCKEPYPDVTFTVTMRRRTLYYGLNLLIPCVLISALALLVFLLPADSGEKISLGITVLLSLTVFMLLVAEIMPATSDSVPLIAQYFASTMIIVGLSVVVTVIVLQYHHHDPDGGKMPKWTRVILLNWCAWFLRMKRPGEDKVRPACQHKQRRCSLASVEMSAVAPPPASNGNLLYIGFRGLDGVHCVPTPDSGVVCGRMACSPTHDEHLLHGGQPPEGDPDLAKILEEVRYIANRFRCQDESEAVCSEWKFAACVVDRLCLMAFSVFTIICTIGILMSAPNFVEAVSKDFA
The experiment is classed as cell-based. The conditions noted are these: oocytes expressing α7 receptors.
Source text: as §1

Experiment [3] concerns rat brain nAChRs that bind nicotine with high affinity. The settings on record: reference 7; cited from earlier work.
Experiment [4] has as its system α6/α3 chimera/β2 receptors. The settings on record: oocytes, FIG. 2.13.
Description: Mature female Xenopus laevis were anesthetized by immersion in a 1.5 g/L solution of aminobenzoic acid ethyl ester (MP Biomedicals, LLC, Solon, Ohio) for 30 min. The excised ovary bag was placed into calcium-free Barth's saline (88 mM NaCl, 1 mM KCl, 2.38 mM NaHCO3, 0.82 mM MgSO4, 15 mM HEPES, 0.012 mg/ml tetracycline hydrochloride, pH 7.3+−0.1), opened with forceps and washed three times with Barth's saline. Then 60 ml collagenase solution (76 mg Sigma type XX collagenase dissolved in Ca^2+-free Barth saline) was added and the oocyte containing mass was shaken for 2 hours at 5° C. After washing three times with Ca^2+-free Barth's and then three times with Barth's solution containing calcium, the oocytes were evaluated under a stereo microscope. Healthy stage 5 oocytes were transferred into new dishes and incubated in 17° C. for overnight. Oocytes were injected with either 50 nl of alpha7 mRNA solution (20 ng) or 50 nl of a mixture of alpha4 and beta2 (1:1, 10 ng) mRNA, using a Drummond Nanoject II Auto-Injector. The cells were cultured in Barth's saline at 17° C. for 5-16 days, with daily changes in the saline. […] Membrane currents were recorded with an AxoClamp-2 (Axon Instruments, Union City, Calif.), filtered at 10 kHz and sampled at 5 kHz. […]
Experiment [5] relates to alpha7 receptors relative to alpha4beta2 nAChRs. The settings on record: Martin et al., 2004; cited from earlier work.
Setting [6] is: listed as 3-(((2S,5S)-1,5-Dimethylpyrrolidine-2-yl)methoxy)-pyridine.

For `CN1CCCC1(C)c1cccnc1` (racemic) [2′ methyl-nicotine, (±)-2′-Methylnicotine], the “agonist activity/potency on α4β2 receptors (in words)” value in experiment [1] is on record as “excellent agonist activity”. Moreover, in experiment [2], the “agonist activity/potency on α7 receptors (in words)” value was “excellent agonist activity”. Further, the “increase in potency at α7 nAChR relative to nicotine” value in experiment [2] (FIG. 2.10) is listed as 6.7 fold. The “displacement of radiolabeled methylcarbamylcholine binding (in words)” value in experiment [3] is “displace the binding”. On to `CCC1(c2cccnc2)CCCN1C` (racemic) [2′-ethyl-nicotine, (±)-2′-Ethylnicotine], for which the “displacement of radiolabeled methylcarbamylcholine binding (in words)” value in experiment [3] is listed as “displace the binding”.

With `C[C@H]1C[C@H](c2cccnc2)N1C` (relative stereo) [Trans-3-(1,4-Dimethylazetidin-2-yl)pyridine], in experiment [1] (oocytes, FIG. 3.4), the “potency of trans- versus cis-diastereomers on α4β2 receptors (in words)” value is listed as “significantly more potent than the cis-diastereomers”. On to `C[C@@H]1CC[C@@H](COc2cccnc2)N1C` [3-(((2S,5R)-1,5-Dimethylpyrrolidin-2-yl)methoxy)pyridine], for which, in experiment [1], the “agonist activity/potency on α4β2 receptors (in words)” value is on record as “essentially no agonistic activity”. Consider `C[C@H]1CC[C@@H](COc2cccnc2)N1C` [3-(((2S,5S)-1,5-Dimethylpyrrolidin-2-yl)methoxy)pyridine], for which the “agonist activity/potency on α4β2 receptors (in words)” value in experiment [1] is recorded as “essentially no agonistic activity”; in experiment [1] (setting [6]) it was “low activity”. For the same compound, in experiment [2] (setting [6]), the “agonist activity/potency on α7 receptors (in words)” value is on record as “high potency; also recorded: low activity”. For the compound `C[C@H]1CC[C@@H](c2cccnc2)N1C` [5′ Cis-Me-Nic], the “response of α6/α3 chimera/β2 receptors (in words)” value in experiment [4] was “essentially identical manner”. In experiment [1], the “agonist activity/potency on α4β2 receptors (in words)” value was “inactive”. On to `C[C@@H]1CC[C@@H](c2cccnc2)N1C` [5′ Trans-Me-Nic], for which the “response of α6/α3 chimera/β2 receptors (in words)” value in experiment [4] is “essentially identical manner”. Also, the “agonist activity/potency on α4β2 receptors (in words)” value in experiment [1] was “inactive”. On to `CN1CCC[C@H]1c1cccnc1` [nicotine, (S)-nicotine], for which, in experiment [5], the “alpha7 receptors less sensitive to nicotine relative to alpha4beta2 nAChRs” value is reported as “at least 50 ×”. Consider `CN1CCC1c1cccnc1` (stereo not drawn) [trans-3-(1-methylazetidin-2-yl)pyridine], for which the “agonist activity/potency on α4β2 receptors (in words)” value in experiment [1] is given as “more potent strong agonist”. The “agonist activity/potency on α7 receptors (in words)” value in experiment [2] was “more potent strong agonist”.
